For experiment [1], the target named is T1, JUP encoded protein (junction plakoglobin) (Homo sapiens, UniProt P14923).
T1 construct: endogenous in cells; host or cells: Raji cells (lysate)
Description: Streptavidin pull-down and mass spectrometry. It is filed as binding. The note with it: Raji lysates, gene JUP. The method, then: (§1) Two hundred million Raji cells were harvested and lysed with RIPA buffer [1% Nonidet P-40 (NP-40), 10 mM Tris (pH8.0), 2 mM EDTA, 150 mM NaCl, supplemented with protease inhibitors (1 mM phenylmethylsulphonyl fluoride (PMSF), 1 μg/ml each Aprotinin, Pepstatin, and Leupeptin)]. Twenty milligram lysates were combined with magnetic Streptavidin beads as well as biotin-conjugated compounds 51046, 51048, or 51052, respectively. The complexes were incubated overnight with rotation at 4 °C. The immunoprecipitated samples were washed with RIPA three times and resolved on an SDS-PAGE gel.
(§2) The following Mass Spectrometry proteomics resources and services are provided by the Quantitative Proteomics Resource Core at School of Medicine at the University of Pennsylvania. Briefly, the peptides were extracted from the gel band and analyzed with an Orbitrap Fusion (Thermo Fisher Scientific, San Jose, CA, USA) attached to an EasyLC 1000 system (Thermo Fisher Scientific, San Jose, CA, USA) at 400 nL/min. The raw MS data were processed using MaxQuant (Version 1.5.3.30)[61], and searched with the UniProt human database. Then the target-decoy approach was used to filter the search results, in which the false discovery rate was less than 1% at the peptide and protein level.

The target in experiment [2] is T2, PIK3C2B encoded protein (PI3KC2β) (Homo sapiens, UniProt O00750).
T2 construct: endogenous in cells; host or cells: Raji cells (lysate)
T2 sequence (O00750 whole entry): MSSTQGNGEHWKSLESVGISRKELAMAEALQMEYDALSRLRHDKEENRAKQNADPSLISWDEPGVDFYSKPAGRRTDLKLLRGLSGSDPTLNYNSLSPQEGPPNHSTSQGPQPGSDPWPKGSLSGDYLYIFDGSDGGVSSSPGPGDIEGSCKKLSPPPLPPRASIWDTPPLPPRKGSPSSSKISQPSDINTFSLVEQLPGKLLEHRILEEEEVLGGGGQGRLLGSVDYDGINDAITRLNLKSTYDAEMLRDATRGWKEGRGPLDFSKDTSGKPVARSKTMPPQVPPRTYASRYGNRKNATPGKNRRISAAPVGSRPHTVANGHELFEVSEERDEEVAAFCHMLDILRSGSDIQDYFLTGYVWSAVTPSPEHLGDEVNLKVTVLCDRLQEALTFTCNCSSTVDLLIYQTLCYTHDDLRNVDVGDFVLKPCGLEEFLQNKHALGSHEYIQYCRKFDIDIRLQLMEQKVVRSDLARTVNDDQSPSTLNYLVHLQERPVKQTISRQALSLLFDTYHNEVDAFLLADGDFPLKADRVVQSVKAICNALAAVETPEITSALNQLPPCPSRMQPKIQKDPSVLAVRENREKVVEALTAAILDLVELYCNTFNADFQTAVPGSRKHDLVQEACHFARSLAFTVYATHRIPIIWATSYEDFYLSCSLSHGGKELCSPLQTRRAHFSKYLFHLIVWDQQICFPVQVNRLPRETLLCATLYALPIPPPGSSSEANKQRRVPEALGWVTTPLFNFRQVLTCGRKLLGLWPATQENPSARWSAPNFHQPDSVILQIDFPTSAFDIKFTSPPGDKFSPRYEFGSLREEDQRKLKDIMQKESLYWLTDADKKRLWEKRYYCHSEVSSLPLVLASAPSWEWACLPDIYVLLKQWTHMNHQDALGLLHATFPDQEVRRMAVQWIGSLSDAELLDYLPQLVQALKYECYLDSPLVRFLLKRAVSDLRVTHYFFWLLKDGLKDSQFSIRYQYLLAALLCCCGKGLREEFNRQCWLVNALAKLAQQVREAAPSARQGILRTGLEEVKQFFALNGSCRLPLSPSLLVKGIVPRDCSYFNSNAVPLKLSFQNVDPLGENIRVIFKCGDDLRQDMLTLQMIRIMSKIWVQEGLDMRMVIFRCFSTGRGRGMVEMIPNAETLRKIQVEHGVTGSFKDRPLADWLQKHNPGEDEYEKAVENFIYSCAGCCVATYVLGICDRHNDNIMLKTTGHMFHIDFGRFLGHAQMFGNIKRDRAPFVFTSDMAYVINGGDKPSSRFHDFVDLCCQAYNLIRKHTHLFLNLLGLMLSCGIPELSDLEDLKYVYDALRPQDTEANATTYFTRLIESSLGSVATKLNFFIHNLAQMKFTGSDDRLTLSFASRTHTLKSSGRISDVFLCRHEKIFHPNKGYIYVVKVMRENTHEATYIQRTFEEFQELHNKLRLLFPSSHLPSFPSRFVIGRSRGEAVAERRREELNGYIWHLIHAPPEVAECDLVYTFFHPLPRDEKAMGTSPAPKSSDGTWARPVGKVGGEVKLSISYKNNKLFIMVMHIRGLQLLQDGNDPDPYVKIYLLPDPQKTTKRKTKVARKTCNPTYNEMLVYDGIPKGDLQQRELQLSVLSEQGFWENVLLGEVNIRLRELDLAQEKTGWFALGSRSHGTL
Description: Streptavidin pull-down and mass spectrometry. It is filed as binding. Particulars: Raji lysates, gene PIK3C2B. The method, then:
as §1, §2

In experiment [3] the target is T3, AKT1 (Homo sapiens, UniProt P31749).
T3 construct: endogenous in cells; host or cells: SU-DHL-4 cells (lysate)
T3 sequence (P31749 whole entry): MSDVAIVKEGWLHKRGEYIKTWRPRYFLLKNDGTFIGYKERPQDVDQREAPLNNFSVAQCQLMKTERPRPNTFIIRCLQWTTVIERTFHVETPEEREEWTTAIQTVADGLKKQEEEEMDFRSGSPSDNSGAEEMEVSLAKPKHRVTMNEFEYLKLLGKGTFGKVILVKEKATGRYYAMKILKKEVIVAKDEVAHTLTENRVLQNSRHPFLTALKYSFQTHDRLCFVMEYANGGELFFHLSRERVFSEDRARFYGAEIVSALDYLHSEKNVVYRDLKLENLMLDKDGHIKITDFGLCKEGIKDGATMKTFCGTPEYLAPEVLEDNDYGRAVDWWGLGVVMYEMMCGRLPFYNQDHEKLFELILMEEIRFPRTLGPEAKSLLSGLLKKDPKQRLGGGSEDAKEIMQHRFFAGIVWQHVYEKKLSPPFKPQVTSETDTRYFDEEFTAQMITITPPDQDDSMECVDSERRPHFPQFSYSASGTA
Description: Competitive binding pull-down assay in SU-DHL-4 cell lysates, western blot. Particulars: SU-DHL-4 lysates. How it is done: (§3) Thirty microgram of purified GST-tagged proteins were pre-cleared with Dynabeads M-280 Streptavidin (Invitrogen, Carlsbad, CA, USA). […] The complexes were harvested and washed with PBS. The collected beads were mixed with SDS loading buffer for further analysis.
(§4) Western blot analyses were performed as previously described. Briefly, total cell lysates were separated by SDS-PAGE gel and transferred to nitrocellulose membrane. The membranes were blocked with 5% non-fat milk, probed with specific antibodies, and visualized using the Odyssey scanner (LiCor Inc., Lincoln, NE).
For orientation: In western blotting, separated proteins are transferred to a membrane and probed.

Experiment [4] has as its target T4, GAPDH (Homo sapiens, UniProt P04406).
T4 construct: endogenous in cells; host or cells: SU-DHL-4 cells (lysate)
The description is as above. Particulars: SU-DHL-4 lysates. How it is done:
as §3, §4

Experiment [5] addresses T5, PI3Kγ (Homo sapiens, UniProt P48736).
T5 construct: endogenous in cells; host or cells: SU-DHL-4 cells (lysate)
The description is as above. Particulars: SU-DHL-4 lysates, biotin derivative alone. The method, then:
as §3, §4

The target of experiment [6] is T6, PIK3CG encoded protein (PI3Kγ) (Homo sapiens, UniProt P48736).
T6 construct: endogenous in cells; host or cells: Raji cells (lysate)
T6 sequence (P48736 whole entry): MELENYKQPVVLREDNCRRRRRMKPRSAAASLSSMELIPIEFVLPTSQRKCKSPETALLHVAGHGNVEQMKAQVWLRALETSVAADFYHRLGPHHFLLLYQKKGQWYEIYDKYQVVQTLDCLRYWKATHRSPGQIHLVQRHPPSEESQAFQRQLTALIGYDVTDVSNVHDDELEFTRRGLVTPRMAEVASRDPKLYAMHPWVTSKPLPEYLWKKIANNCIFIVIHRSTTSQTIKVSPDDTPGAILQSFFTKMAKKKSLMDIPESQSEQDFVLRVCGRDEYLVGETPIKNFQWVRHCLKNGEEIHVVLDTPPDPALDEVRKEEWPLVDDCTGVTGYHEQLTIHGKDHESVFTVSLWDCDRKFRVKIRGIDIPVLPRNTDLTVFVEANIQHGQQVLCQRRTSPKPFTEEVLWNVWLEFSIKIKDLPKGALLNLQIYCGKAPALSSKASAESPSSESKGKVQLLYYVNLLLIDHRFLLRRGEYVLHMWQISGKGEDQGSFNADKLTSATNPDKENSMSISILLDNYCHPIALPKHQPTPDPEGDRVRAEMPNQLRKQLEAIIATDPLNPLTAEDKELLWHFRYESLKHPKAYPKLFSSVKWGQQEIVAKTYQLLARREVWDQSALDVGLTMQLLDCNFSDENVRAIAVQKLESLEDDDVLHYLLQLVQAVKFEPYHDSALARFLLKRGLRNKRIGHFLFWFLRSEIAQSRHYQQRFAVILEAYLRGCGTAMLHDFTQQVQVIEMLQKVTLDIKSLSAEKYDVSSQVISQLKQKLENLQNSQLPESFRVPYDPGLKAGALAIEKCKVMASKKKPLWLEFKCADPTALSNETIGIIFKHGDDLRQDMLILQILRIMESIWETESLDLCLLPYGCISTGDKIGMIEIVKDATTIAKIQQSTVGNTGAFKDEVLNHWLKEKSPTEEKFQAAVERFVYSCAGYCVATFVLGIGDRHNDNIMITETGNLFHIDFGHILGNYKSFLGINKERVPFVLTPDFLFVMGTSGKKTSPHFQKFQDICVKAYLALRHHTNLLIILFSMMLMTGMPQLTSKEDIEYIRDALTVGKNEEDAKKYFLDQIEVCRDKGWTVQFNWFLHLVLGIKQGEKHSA
Description: Streptavidin pull-down and mass spectrometry. The note with it: Raji lysates, gene PIK3CG. In kind it is binding. How it is done:
as §1, §2

Experiment [7] addresses T7, TP73 encoded protein (P73) (Homo sapiens, UniProt O15350).
T7 construct: endogenous in cells; host or cells: Raji cells (lysate)
Description: Streptavidin pull-down and mass spectrometry. In kind it is binding. The note with it: Raji lysates, gene TP73. The method, then: as §1, §2

Experiment [8] deals with T8, GST-tagged PI3Kγ protein (Homo sapiens, UniProt P48736).
T8 construct: made in house; host or cells: E. coli BL21 (DE3)
T8 sequence (P48736 whole entry): as above
Description: In vitro pull-down assay with purified protein. It is filed as binding. Particulars: 0, 300 μM, or 500 μM compound, Dynabeads M-280 Streptavidin.
From the text: PIK3CG cDNA (Plasmid #20574) was purchased from Addgene and cloned into a pGEX-6P-1 vector (GE Healthcare, Madison, WI, USA) with SalI and NotI (NEB, USA). This GST-tagged PIK3CG plasmid was transformed into E. coli BL21 (DE3)-competent cells (Life Technologies, Carlsbad, CA, USA) for in vitro expression according to Molecular Cloning (Third Edition).
as §3

Each structure is given as a SMILES string.

T5 sequence (P48736 whole entry): as above
T4 sequence (P04406 whole entry): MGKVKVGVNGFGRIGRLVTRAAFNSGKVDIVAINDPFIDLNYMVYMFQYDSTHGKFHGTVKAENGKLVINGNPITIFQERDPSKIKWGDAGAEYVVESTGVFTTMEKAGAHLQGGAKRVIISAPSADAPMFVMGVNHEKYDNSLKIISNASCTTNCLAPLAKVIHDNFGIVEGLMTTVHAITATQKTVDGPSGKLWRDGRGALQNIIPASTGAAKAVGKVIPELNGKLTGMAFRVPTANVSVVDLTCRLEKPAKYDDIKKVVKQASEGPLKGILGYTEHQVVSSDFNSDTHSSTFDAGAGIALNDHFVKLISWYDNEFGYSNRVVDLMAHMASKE
T1 sequence (P14923 whole entry): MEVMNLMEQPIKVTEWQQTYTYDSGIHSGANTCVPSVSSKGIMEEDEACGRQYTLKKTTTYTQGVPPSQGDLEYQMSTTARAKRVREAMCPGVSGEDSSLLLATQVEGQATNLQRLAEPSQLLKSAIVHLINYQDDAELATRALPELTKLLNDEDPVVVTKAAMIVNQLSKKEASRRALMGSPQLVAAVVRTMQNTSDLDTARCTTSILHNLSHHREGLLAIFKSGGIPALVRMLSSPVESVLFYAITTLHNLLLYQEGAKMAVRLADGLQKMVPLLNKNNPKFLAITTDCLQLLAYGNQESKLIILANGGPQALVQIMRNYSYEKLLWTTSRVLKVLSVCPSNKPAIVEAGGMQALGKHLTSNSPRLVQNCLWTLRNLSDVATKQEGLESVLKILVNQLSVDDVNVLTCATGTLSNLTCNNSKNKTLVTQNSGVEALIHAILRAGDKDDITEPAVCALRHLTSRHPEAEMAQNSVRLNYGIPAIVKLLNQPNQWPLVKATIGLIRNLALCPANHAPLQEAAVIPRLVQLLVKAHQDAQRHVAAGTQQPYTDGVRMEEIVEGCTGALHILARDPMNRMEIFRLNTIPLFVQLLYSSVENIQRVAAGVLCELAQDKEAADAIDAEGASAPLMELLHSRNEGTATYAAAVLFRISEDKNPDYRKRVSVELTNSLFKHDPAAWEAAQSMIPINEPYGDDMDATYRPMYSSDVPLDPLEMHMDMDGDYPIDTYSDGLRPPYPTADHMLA
T7 sequence (O15350 whole entry): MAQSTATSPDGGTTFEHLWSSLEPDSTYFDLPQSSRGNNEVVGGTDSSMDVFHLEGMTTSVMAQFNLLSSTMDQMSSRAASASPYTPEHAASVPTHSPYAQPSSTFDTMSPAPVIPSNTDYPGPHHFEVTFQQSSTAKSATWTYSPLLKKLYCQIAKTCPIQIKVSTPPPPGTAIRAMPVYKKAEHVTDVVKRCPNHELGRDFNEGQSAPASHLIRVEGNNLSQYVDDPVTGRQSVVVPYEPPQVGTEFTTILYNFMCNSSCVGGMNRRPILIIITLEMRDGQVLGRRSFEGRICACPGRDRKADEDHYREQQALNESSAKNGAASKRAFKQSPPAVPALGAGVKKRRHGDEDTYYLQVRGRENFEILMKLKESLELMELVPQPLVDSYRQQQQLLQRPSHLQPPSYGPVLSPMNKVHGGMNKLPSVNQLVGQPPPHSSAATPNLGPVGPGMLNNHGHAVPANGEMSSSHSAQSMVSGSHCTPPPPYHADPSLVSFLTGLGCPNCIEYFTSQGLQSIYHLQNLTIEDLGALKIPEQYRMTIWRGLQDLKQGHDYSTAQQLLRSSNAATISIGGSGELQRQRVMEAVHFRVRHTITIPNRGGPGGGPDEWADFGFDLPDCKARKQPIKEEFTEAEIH

For `COC(=O)C12OCC34C(CC5C(C)=C(OC(=O)CCCCC6SCC7NC(=O)NC76)C(=O)CC5(C)C3C(O)C1O)OC(=O)C(OC(=O)C=C(C)C)C24` (centres unmarked) [compound 51048], the “Score (sum of the ion scores of all peptides identified)” value in experiment [1] amounted to 11.324; in experiment [2], 5.9631. In addition, in experiment [3], the AKT1 pulled down entry is listed as “little or no detectable levels”. The GAPDH pulled down entry in experiment [4] is listed as “little or no detectable levels”. For the same compound, the “binding activity with PI3Kγ” value in experiment [5] is reported as “relatively strong”.
For `COC(=O)C12OCC34C(CC5C(C)=C(OC(=O)CCCCCNC(=O)CCCCC6SCC7NC(=O)NC76)C(=O)CC5(C)C3C(O)C1O)OC(=O)C(OC(=O)C=C(C)C)C24` (centres unmarked) [compound 51052], the entries for the “Score (sum of the ion scores of all peptides identified)” value in experiment [6] and in experiment [7] were 6.132 and 6.0132, respectively. For the same compound, the “association with GST-tagged PI3Kγ” value in experiment [8] is given as “formed a complex”.
